{"source": "patent US11149230B2", "about": "“Process for extracting carboxylic acids produced by anaerobic fermentation from fermentable biomass” (AFYREN, priority 2015, dated 2021)", "key": {"[1]": {"tested_on": "optimized anaerobic microbial mix", "experiment": "Test 2: comparison of fermentations in the presence or absence of heptanoic acid", "type": "cell-based", "settings": "grass cuttings/mowings 25 g/l dry matter, 38° C., 160 h, initial addition of 2.8 g/l", "method": "Two fermentations of grass cuttings/mowings in non-sterile mode, at a concentration of 25 g/l of dry matter, in an anaerobic bioreactor with a working volume of 2 l, operated in mesophilic mode (38° C.), were carried out in parallel for 160 h. In the first experiment, after inoculation of an optimized anaerobic microbial mix, an initial addition of heptanoic acid in an amount of 2.8 g/l was carried out. This presence of heptanoic acid makes it possible to understand the biocompatible nature of an extraction carried out with this type of solvent. Indeed, the culture medium after extraction is reintroduced into the bioreactor and may contain traces of extraction solvent up to the amount of their solubility threshold. The second fermentation, which is de facto a control culture, was carried out in parallel under the same conditions except for the addition of heptanoic acid.\nDuring these fermentations, liquid-phase and gas-phase metabolite monitorings were carried out. At the end of fermentation, the yields obtained regarding the production of volatile fatty acids is 0.33 g of VFA/g of dry matter in the case of the experiment with the addition of heptanoic acid, and 0.39 g of VFA/g of dry matter for the control fermentation. […]"}, "[2]": {"tested_on": "optimized anaerobic microbial mix", "experiment": "Test 3: comparison of fermentation in the presence or absence of octanoic acid", "type": "cell-based", "settings": "restoration waste 50 g/l dry matter, initial addition of 0.7 g/l", "quoted_text": "Two fermentations of grass cuttings/mowings in non-sterile mode, at a concentration of 25 g/l of dry matter, in an anaerobic bioreactor with a working volume of 2 l, operated in mesophilic mode (38° C.), were carried out in parallel for 160 h. In the first experiment, after inoculation of an optimized anaerobic microbial mix, an initial addition of heptanoic acid in an amount of 2.8 g/l was carried out. […] The second fermentation, which is de facto a control culture, was carried out in parallel under the same conditions except for the addition of heptanoic acid."}}, "data": [{"smiles": "CCCCCCC(=O)O", "note": "[heptanoic acid, Heptanoic acid]", "values": [{"measurement": "negative effect on the production of volatile fatty acids versus control fermentation", "setting": "[1]", "value": "about 15%"}, {"measurement": "yield of production of volatile fatty acids at the end of fermentation", "setting": "[1]", "value": "0.33 g of VFA/g of dry matter"}]}, {"smiles": "CCCCCCCC(=O)O", "note": "[octanoic acid, Octanoic acid]", "values": [{"measurement": "yield of production of volatile fatty acids at the end of fermentation", "setting": "[2]", "value": "0.3 g of VFA/g of dry matter"}]}]}
